PMC10041525, “New Dual Inhibitors of Bacterial Topoisomerases with Broad-Spectrum Antibacterial Activity and In Vivo Efficacy against Vancomycin-Intermediate Staphylococcus aureus” (Journal of Medicinal Chemistry, 2023)
“And” between values parts separate entries of the source, which are not always exact repeats. Equal entries are not always repeated. Where two headings read alike, the source gives them in different places.

Key:
[1] = tested on: Neisseria gonorrhoeae (n = 12); test: MIC broth microdilution at IHMA Europe; type: cell-based; details: for MIC: Neisseria gonorrhoeae, read-out: MIC
[2] = tested on: Haemophilus influenzae (n = 14); test: MIC broth microdilution at IHMA Europe; type: cell-based, H. influenzae; details: for MIC: Haemophilus influenzae, read-out: MIC
S. pneumoniae (n = 12) = test: MIC broth microdilution at IHMA Europe; type: cell-based; details: for MIC: Streptococcus pneumoniae, read-out: MIC
E. faecalis ATCC 29212 = test: IHMA QC MIC; type: cell-based
Description: (§1) Supplement jm2c01905_si_004.xlsx, sheet "QC" | column: MIC [µg/mL]

H. influenzae ATCC 49247 = test: IHMA QC MIC; type: cell-based
Description: as §1

H. influenzae ATCC 49766 = test: IHMA QC MIC; type: cell-based
Description: as §1

[3] = tested on: N. gonorrhoeae ATCC 49226; test: IHMA QC MIC; type: cell-based; details: Neisseria gonorrhoeae, ATCC49226
Description: as §1

S. pneumoniae ATCC 49619 = test: IHMA QC MIC; type: cell-based
Description: as §1

Cc1[nH]c(C(=O)Nc2nc3c(N4[C@@H]5CC[C@H]4COC5)cc(C(=O)O)cc3s2)c(Cl)c1Cl [7h, 4-((1R,5S)-3-Oxa-8-azabicyclo[3.2.1]octan-8-yl)-2-(3,4-dichloro-5-methyl-1H-pyrrole-2-carboxamido)benzo[d]thiazole-6-carboxylic Acid]
0.25 µg/mL: MIC ([2]; H. influenzae IHMA N° 1254355) | MIC ([2]; H. influenzae IHMA N° 1262734) | MIC ([2]; H. influenzae IHMA N° 1952952) | MIC ([2]; H. influenzae IHMA N° 2047461) | MIC (S. pneumoniae (n = 12); S. pneumoniae IHMA N° 1775387) | MIC (S. pneumoniae (n = 12); S. pneumoniae IHMA N° 1785617) | MIC (S. pneumoniae (n = 12); S. pneumoniae IHMA N° 1800765) | MIC (S. pneumoniae (n = 12); S. pneumoniae IHMA N° 1831562) | MIC (S. pneumoniae (n = 12); S. pneumoniae IHMA N° 1902609) | MIC (S. pneumoniae (n = 12); S. pneumoniae IHMA N° 1979675) | MIC (S. pneumoniae (n = 12); S. pneumoniae IHMA N° 1991963) | MIC (S. pneumoniae (n = 12); S. pneumoniae IHMA N° 2057487) | MIC (S. pneumoniae (n = 12); S. pneumoniae IHMA N° 2073087) | MIC (H. influenzae ATCC 49247; Haemophilus influenzae, ATCC49247, QC strain H. influenzae ATCC 49247, test date 2021-11-11) | MIC (H. influenzae ATCC 49766; Haemophilus influenzae, ATCC49766) | MIC (H. influenzae ATCC 49766; QC strain H. influenzae ATCC 49766, test date 2021-11-26) | MIC (S. pneumoniae ATCC 49619; QC strain S. pneumoniae ATCC 49619, test date 2021-11-26) | MIC (S. pneumoniae ATCC 49619; Streptococcus pneumoniae, ATCC49619)
100.0%: Cumulative % at MIC ([1]; MIC 0.06 µg/mL) | Cumulative % at MIC ([2]; MIC 1 µg/mL) | Cumulative % at MIC (S. pneumoniae (n = 12); MIC 0.5 µg/mL)
≤ 0.5 µg/mL: MIC, all isolates (S. pneumoniae (n = 12); n = 12)
92.9%: Cumulative % at MIC ([2]; MIC 0.5 µg/mL)
0.5 µg/mL: MIC ([2]; H. influenzae IHMA N° 1244149) | MIC ([2]; H. influenzae IHMA N° 1258580) | MIC ([2]; H. influenzae IHMA N° 1286846) | MIC ([2]; H. influenzae IHMA N° 1440085) | MIC (S. pneumoniae (n = 12); S. pneumoniae IHMA N° 1776057) | MIC (H. influenzae ATCC 49247; QC strain H. influenzae ATCC 49247, test date 2021-11-11)
0.12 µg/mL: MIC ([2]; H. influenzae IHMA N° 1227715) | MIC ([2]; H. influenzae IHMA N° 1241620) | MIC ([2]; H. influenzae IHMA N° 1249803) | MIC ([2]; H. influenzae IHMA N° 1272723) | MIC ([2]; H. influenzae IHMA N° 1337530)
0.06 µg/mL: MIC ([1]; isolate IHMA 1130989) | MIC ([1]; isolate IHMA 1137292) | MIC ([1]; isolate IHMA 1546199) | MIC ([1]; isolate IHMA 1546215) | MIC (S. pneumoniae (n = 12); S. pneumoniae IHMA N° 1811259) | MIC (S. pneumoniae (n = 12); S. pneumoniae IHMA N° 2117109) | MIC (H. influenzae ATCC 49247; Haemophilus influenzae, ATCC49247, QC strain H. influenzae ATCC 49247, test date 2021-11-26)
≤ 0.06 µg/mL: MIC, all isolates ([1]; n = 12)
5 and 4: No. of isolates at MIC [2]
≤ 0.03 µg/mL: MIC ([1]; isolate IHMA 1123853) | MIC ([1]; isolate IHMA 1130935) | MIC ([1]; isolate IHMA 1130991) | MIC ([1]; isolate IHMA 1145734) | MIC ([1]; isolate IHMA 1145735) | MIC ([1]; isolate IHMA 1165897) | MIC ([1]; isolate IHMA 1194748) | MIC ([1]; isolate IHMA 1194750) | MIC (E. faecalis ATCC 29212; Enterococcus faecalis, ATCC29212) | MIC [3]
8 and 4: No. of isolates at MIC [1]
1 µg/mL: MIC ([2]; H. influenzae IHMA N° 1479509)
≤ 1 µg/mL: MIC, all isolates ([2]; n = 14)
91.7%: Cumulative % at MIC (S. pneumoniae (n = 12); MIC […])
1: No. of isolates at MIC ([2]; MIC 1 µg/mL)
66.7%: Cumulative % at MIC ([1]; MIC ≤0.03 µg/mL)
16.7%: Cumulative % at MIC (S. pneumoniae (n = 12); MIC 0.06 µg/mL)
≤0,03 µg/mL: MIC (E. faecalis ATCC 29212; QC strain E. faecalis ATCC 29212, test date 2021-11-26)
